Measured values: paper PMC9223764, “In Vitro Selection and Characterization of HIV-1 Variants with Increased Resistance to LP-40, Enfuvirtide-Based Lipopeptide Inhibitor” (International Journal of Molecular Sciences, 2022)
Values joined by “and” are separate entries in the source; they are usually repeats but may differ in a detail not shown here. Equal values may be shown once. Where a SMILES comes first, the peptide text is derived from it. The star is where a group is joined. Palmitoyl = CCCCCCCCCCCCCCCC(=O)*

Legend:
Assay type in all cases: cell-based
[1] = system: HIV-1 NL4-3 gp41 A21T pseudovirus; conditions: Table 2; for IC50: A21T, TZM-bl cells, 48 h, luciferase, mean ± SD, triplicate, repeated three times
Procedure: (§1) The entry abilities of A15V, L57H, R68G, G86D, C87Y, E119G, and N140S were almost completely lost, corresponding to LP40-V6, LP40-V7, T20-V9, LP40-V3, LP40-V5, LP40-V4, and T20-V5, respectively, so it was determined that these mutation sites might be lethal mutations. […] The differences between the wild-type envelope proteins and serial mutant proteins in mediating membrane fusion were compared using a double-separated protein-based fusion experimental system. […] G20V, A21T, E119G, and Y127H had only an approximately 10% fusion capacity, and L33S, N42D, N42T, and N43S had less than 50% fusion capacity, but N140S had approximately 60% fusion capacity (Figure 6B). […] Among them, we selected the fusion ability of the sixth hour to evaluate the fusion activities of the mutant strains (Figure 6B).
(§2) Viral RNA was extracted from the supernatant, and, after reverse transcription, the cDNA was amplified using PCR. These amplified DNA were connected to the T-Easy vector and transformed to Trans 2-Blue Chemically Competent Cells. These sequences were determined via sequencing. The expression plasmids, which contained different HIV-1NL4-3 Env mutants, were constructed using DNA assembly (NEBuilder® HiFi DNA Assembly Master Mix). In brief, two primers were used to amplify Env, and the other two primers were used to amplify the vector fragment. The products of PCR were purified with a 20–25 bp overlap in the terminal of Env and the vector fragment Env and the vector fragment were added to the DNA assembly master mix at […] for 15 min and then transformed to Trans 2-Blue Chemically Competent Cells. Additionally, a single-point mutation was generated using double-stranded DNA templates and a selection of mutants with a restriction enzyme (DpnI) as described previously. The successful mutations were confirmed via sequencing.
(§3) The infectivity of HIV Env mutants and the inhibitory activities of membrane fusion inhibitors on mutants in TZM-bl cells were measured using a single-cycle infection assay as described previously. Briefly, the HIV pseudovirus was packed using an Env-coding plasmid, and pSG3ΔEnv was co-transfected into HEK293T cells. pSG3ΔEnv encodes an Env-defective, luciferase-expressing HIV-1 genome. After the pseudoviruses were harvested and filtrated, the amount of pseudoviruses was fixed via P24 antigen, and their infectivity was determined in TZM-bl cells. In order to measure the inhibitory activities of the inhibitors, inhibitors diluted serially 3-fold were mixed with an equal volume of pseudoviruses, and then 100 µL 1 × 10^5/mL TZM-bl cells were added to the mixture and incubated at 37 °C with 5% CO2 for 48 h. After that, TZM-bl cells were lysed using reporter lysis buffer, and IC50 values were calculated according to luciferase activity measured by luciferase assay reagents and a luminescence counter (Promega, Madison, WI, USA).

[2] = system: HIV-1 NL4-3 gp41 A50V pseudovirus; conditions: Table 2; for IC50: A50V, TZM-bl cells, 48 h, luciferase, mean ± SD, triplicate, repeated three times
Procedure: as §1, §2, §3

[3] = system: HIV-1 NL4-3 gp41 A71V pseudovirus; conditions: Table 2; for IC50: A71V, TZM-bl cells, 48 h, luciferase, mean ± SD, triplicate, repeated three times
Procedure: as §1, §2, §3

[4] = system: HIV-1 NL4-3 gp41 D36G pseudovirus; conditions: Table 2; for IC50: D36G, TZM-bl cells, 48 h, luciferase, mean ± SD, triplicate, repeated three times
Procedure: as §1, §2, §3

[5] = system: HIV-1 NL4-3 gp41 E137K pseudovirus; conditions: Table 2; for IC50: E137K, TZM-bl cells, 48 h, luciferase, mean ± SD, triplicate, repeated three times
Procedure: as §1, §2, §3

[6] = system: HIV-1 NL4-3 gp41 G20V pseudovirus; conditions: Table 2; for IC50: G20V, TZM-bl cells, 48 h, luciferase, mean ± SD, triplicate, repeated three times
Procedure: as §1, §2, §3

[7] = system: HIV-1 NL4-3 gp41 N126K pseudovirus; conditions: Table 2; for IC50: N126K, TZM-bl cells, 48 h, luciferase, mean ± SD, triplicate, repeated three times
Procedure: as §1, §2, §3

[8] = system: HIV-1 NL4-3 gp41 N42D pseudovirus; conditions: Table 2; for IC50: N42D, TZM-bl cells, 48 h, luciferase, mean ± SD, triplicate, repeated three times
Procedure: as §1, §2, §3

[9] = system: HIV-1 NL4-3 gp41 N42T pseudovirus; conditions: Table 2; for IC50: N42T, TZM-bl cells, 48 h, luciferase, mean ± SD, triplicate, repeated three times
Procedure: as §1, §2, §3

[10] = system: HIV-1 NL4-3 gp41 N43S pseudovirus; conditions: Table 2; for IC50: N43S, TZM-bl cells, 48 h, luciferase, mean ± SD, triplicate, repeated three times
Procedure: as §1, §2, §3

[11] = system: HIV-1 NL4-3 gp41 S129N pseudovirus; conditions: Table 2; for IC50: S129N, TZM-bl cells, 48 h, luciferase, mean ± SD, triplicate, repeated three times
Procedure: as §1, §2, §3

[12] = system: HIV-1 NL4-3 gp41 S35P pseudovirus; conditions: Table 2; for IC50: S35P, TZM-bl cells, 48 h, luciferase, mean ± SD, triplicate, repeated three times
Procedure: as §1, §2, §3

[13] = system: HIV-1 NL4-3 gp41 V38A pseudovirus; conditions: Table 2; for IC50: V38A, TZM-bl cells, 48 h, luciferase, mean ± SD, triplicate, repeated three times
Procedure: as §1, §2, §3

[14] = system: HIV-1 NL4-3 gp41 V38T pseudovirus; conditions: Table 2; for IC50: V38T, TZM-bl cells, 48 h, luciferase, mean ± SD, triplicate, repeated three times
Procedure: as §1, §2, §3

[15] = system: HIV-1 NL4-3 gp41 Y127H pseudovirus; conditions: Table 2; for IC50: Y127H, TZM-bl cells, 48 h, luciferase, mean ± SD, triplicate, repeated three times
Procedure: as §1, §2, §3

## Enfuvirtide
[1]
  IC50: 58.9 ± 9.24 nM
[2]
  IC50: 162 ± 69.4 nM
[3]
  IC50: 46.5 ± 12.5 nM
[4]
  IC50: 6 ± 1.68 nM
[5]
  IC50: 68.5 ± 20.1 nM
[6]
  IC50: 49.1 ± 10.9 nM
[7]
  IC50: 117 ± 37.4 nM
[8]
  IC50: 164 ± 26.8 nM
[9]
  IC50: 413 ± 82 nM
[10]
  IC50: 540 ± 91.9 nM
[11]
  IC50: 70.3 ± 19.8 nM
[12]
  IC50: 138 ± 10.6 nM
[13]
  IC50: 1540 ± 22 nM
[14]
  IC50: 991 ± 216 nM
[15]
  IC50: 23.7 ± 2.63 nM

## CCCCCCCCCCCCCCCC(=O)NCCCC[C@H](NC(=O)[C@H](CC(=O)O)NC(=O)[C@H](CC(C)C)NC(=O)[C@H](CCC(=O)O)NC(=O)[C@H](CC(C)C)NC(=O)[C@H](CC(C)C)NC(=O)[C@H](CCC(=O)O)NC(=O)[C@H](CCC(N)=O)NC(=O)[C@H](CCC(=O)O)NC(=O)[C@H](CC(N)=O)NC(=O)[C@H](CCCCN)NC(=O)[C@H](CCC(=O)O)NC(=O)[C@H](CCC(N)=O)NC(=O)[C@H](CCC(N)=O)NC(=O)[C@H](CC(N)=O)NC(=O)[C@H](CCC(N)=O)NC(=O)[C@H](CO)NC(=O)[C@H](CCC(=O)O)NC(=O)[C@H](CCC(=O)O)NC(=O)[C@@H](NC(=O)[C@H](CC(C)C)NC(=O)[C@H](CO)NC(=O)[C@H](Cc1c[nH]cn1)NC(=O)[C@@H](NC(=O)[C@H](CC(C)C)NC(=O)[C@H](CO)NC(=O)[C@@H](NC(=O)[C@H](Cc1ccc(O)cc1)NC(C)=O)[C@@H](C)O)[C@@H](C)CC)[C@@H](C)CC)C(N)=O [LP-40] (Ac-YTSLIHSLIEESQNQQEKNEQELLELDK(Palmitoyl)-NH2)
[1]; A21T relative to WT NL4-3
  Fold change in IC50: 0.85 fold
[1]
  IC50: 26.8 ± 8.36 nM
[2]; A50V relative to WT NL4-3
  Fold change in IC50: 1.87 fold
[2]
  IC50: 58.8 ± 13.7 nM
[3]; A71V relative to WT NL4-3
  Fold change in IC50: 1.37 fold
[3]
  IC50: 43.2 ± 8.19 nM
[4]; D36G relative to WT NL4-3
  Fold change in IC50: 0.07 fold
[4]
  IC50: 2.22 ± 0.57 nM
[5]; E137K relative to WT NL4-3
  Fold change in IC50: 1.35 fold
[5]
  IC50: 42.6 ± 11.7 nM
[6]; G20V relative to WT NL4-3
  Fold change in IC50: 6.5 fold and 6.49 fold
[6]
  IC50: 205 ± 47.2 nM
[7]; N126K relative to WT NL4-3
  Fold change in IC50: 9.7 fold and 9.65 fold
[7]
  IC50: 304 ± 50.5 nM
[8]; N42D relative to WT NL4-3
  Fold change in IC50: 3.46 fold
[8]
  IC50: 109 ± 18.4 nM
[9]; N42T relative to WT NL4-3
  Fold change in IC50: 40.18 fold
[9]
  IC50: 1270 ± 167 nM
[10]; N43S relative to WT NL4-3
  Fold change in IC50: 11.31 fold
[10]
  IC50: 357 ± 117 nM
[11]; S129N relative to WT NL4-3
  Fold change in IC50: 1.08 fold
[11]
  IC50: 34 ± 10 nM
[12]; S35P relative to WT NL4-3
  Fold change in IC50: 0.69 fold
[12]
  IC50: 21.6 ± 5.15 nM
[13]; V38A relative to WT NL4-3
  Fold change in IC50: 110.56 fold
[13]
  IC50: 3490 ± 423 nM
[14]; V38T relative to WT NL4-3
  Fold change in IC50: 46.03 fold
[14]
  IC50: 1450 ± 237 nM
[15]; Y127H relative to WT NL4-3
  Fold change in IC50: 0.18 fold
[15]
  IC50: 5.74 ± 1.86 nM
